Test results: patent US7718666B2, “Pyrido [2,1-a] isoquinoline derivatives” (Hoffmann-La Roche Inc., priority 2003, dated 2010)

Target: human DPP-IV (Homo sapiens, UniProt P27487)
Experiment: DPP-IV activity assay (fluorogenic / colorimetric), IC50 determination
Experimental: Activity of DPP-IV inhibitors are tested with natural human DPP-IV derived from a human plasma pool or with recombinant human DPP-IV. Human citrate plasma from different donors is pooled, filtered through a 0.2 micron membrane under sterile conditions and aliquots of 1 ml are shock frozen and stored at −120° C. until used. In the colorimetric DPP-IV assay 5 to 10 μl human plasma and in the fluorometric assay 1.0 μl of human plasma in a total assay volume of 100 μl is used as an enzyme source. […] Human DPP-IV is expressed and purified from the culture medium using conventional column chromatography including size exclusion and anion and cation chromatography. […] In the calorimetric DPP-IV assay 20 ng rec.-h DPP-IV and in the fluorometric assay 2 ng rec-h DPP-IV in a total assay volume of 100 μl is used as an enzyme source.
Initial rate constants are calculated by best fit linear regression.
The absorption of pNA liberated from the calorimetric substrate is detected in a Packard SpectraCount at 405 nm continuosly every 2 minutes for 30 to 120 minutes. Initial rate constants are calculated by best fit linear regression.
DPP-IV activity assays are performed in 96 well plates at 37° C. in a total assay volume of 100 μl. […]
Kinetic parameters of the enzyme reaction are calculated at least 5 different substrate concentrations and at least 5 different test compound concentrations.

human DPP-IV, sequence (P27487 31-766): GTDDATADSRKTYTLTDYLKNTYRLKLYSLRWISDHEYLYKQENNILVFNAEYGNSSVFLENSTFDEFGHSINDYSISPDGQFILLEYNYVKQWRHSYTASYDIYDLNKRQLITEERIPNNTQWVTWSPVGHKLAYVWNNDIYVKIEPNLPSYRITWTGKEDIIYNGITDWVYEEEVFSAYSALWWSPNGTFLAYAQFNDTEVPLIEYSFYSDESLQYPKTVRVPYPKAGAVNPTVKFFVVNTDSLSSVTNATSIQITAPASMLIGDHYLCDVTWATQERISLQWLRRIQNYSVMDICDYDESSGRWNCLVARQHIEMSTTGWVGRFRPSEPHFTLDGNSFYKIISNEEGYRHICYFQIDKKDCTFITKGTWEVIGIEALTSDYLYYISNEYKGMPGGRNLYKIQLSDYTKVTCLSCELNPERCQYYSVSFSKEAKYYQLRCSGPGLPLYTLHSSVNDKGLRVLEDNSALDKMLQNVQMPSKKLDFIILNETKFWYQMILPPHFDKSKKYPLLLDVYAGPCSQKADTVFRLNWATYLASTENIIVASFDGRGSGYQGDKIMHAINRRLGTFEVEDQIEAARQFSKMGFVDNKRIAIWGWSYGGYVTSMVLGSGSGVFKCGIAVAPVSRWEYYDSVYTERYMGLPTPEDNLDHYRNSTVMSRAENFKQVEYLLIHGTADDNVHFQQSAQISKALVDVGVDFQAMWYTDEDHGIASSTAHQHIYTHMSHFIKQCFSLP

IC50 [nM]	Compound
5.4	COc1cc2c(cc1OC)[C@@H]1C[C@H](N)[C@@H](n3ccc(C)c3)CN1CC2 (racemic) [Example 33, rac-9,10-Dimethoxy-3β-(3-methyl-pyrrol-1-yl)-1,3,4,6,7,11bβ-hexahydro-2H-pyrido[2,1-a]isoquinolin-2α-ylamine]
11.5	COc1cc2c(cc1OC)[C@@H]1C[C@H](N)[C@@H](c3cc(C)ccn3)CN1CC2 [Example 9, 9,10-Dimethoxy-3(S)-(4-methyl-pyridin-2-yl)-1,3,4,6,7,11b(S)-hexahydro-2H-pyrido[2,1a]isoquinolin-2(S)-ylamine]
